Measurements reported in paper PMC8705783, “The Effect of Conjugation with Octaarginine, a Cell-Penetrating Peptide on Antifungal Activity of Imidazoacridinone Derivative” (International Journal of Molecular Sciences, 2021).
Converted amounts (≈) assume the structure as drawn.

Assays:
reference strains = assay: Antifungal activity, summary over reference strains; type: cell-based; set-up: key to Antifungal Activity (level): (−) Means no antifungal activity; (±) low activity; (+) moderate activity; (++) high activity at the concentration mentioned; conditions: for Antifungal Activity (level): Table 3; for antifungal activity: as reported in Table 1
yeast topoisomerase II [1] = target: T1, yeast topoisomerase II (Saccharomyces cerevisiae, UniProt P06786); assay: Yeast topoisomerase II relaxation assay; type: biochemical; conditions: supercoiled pBR322, tested at 1-200 μM
T1 sequence (P06786 whole entry): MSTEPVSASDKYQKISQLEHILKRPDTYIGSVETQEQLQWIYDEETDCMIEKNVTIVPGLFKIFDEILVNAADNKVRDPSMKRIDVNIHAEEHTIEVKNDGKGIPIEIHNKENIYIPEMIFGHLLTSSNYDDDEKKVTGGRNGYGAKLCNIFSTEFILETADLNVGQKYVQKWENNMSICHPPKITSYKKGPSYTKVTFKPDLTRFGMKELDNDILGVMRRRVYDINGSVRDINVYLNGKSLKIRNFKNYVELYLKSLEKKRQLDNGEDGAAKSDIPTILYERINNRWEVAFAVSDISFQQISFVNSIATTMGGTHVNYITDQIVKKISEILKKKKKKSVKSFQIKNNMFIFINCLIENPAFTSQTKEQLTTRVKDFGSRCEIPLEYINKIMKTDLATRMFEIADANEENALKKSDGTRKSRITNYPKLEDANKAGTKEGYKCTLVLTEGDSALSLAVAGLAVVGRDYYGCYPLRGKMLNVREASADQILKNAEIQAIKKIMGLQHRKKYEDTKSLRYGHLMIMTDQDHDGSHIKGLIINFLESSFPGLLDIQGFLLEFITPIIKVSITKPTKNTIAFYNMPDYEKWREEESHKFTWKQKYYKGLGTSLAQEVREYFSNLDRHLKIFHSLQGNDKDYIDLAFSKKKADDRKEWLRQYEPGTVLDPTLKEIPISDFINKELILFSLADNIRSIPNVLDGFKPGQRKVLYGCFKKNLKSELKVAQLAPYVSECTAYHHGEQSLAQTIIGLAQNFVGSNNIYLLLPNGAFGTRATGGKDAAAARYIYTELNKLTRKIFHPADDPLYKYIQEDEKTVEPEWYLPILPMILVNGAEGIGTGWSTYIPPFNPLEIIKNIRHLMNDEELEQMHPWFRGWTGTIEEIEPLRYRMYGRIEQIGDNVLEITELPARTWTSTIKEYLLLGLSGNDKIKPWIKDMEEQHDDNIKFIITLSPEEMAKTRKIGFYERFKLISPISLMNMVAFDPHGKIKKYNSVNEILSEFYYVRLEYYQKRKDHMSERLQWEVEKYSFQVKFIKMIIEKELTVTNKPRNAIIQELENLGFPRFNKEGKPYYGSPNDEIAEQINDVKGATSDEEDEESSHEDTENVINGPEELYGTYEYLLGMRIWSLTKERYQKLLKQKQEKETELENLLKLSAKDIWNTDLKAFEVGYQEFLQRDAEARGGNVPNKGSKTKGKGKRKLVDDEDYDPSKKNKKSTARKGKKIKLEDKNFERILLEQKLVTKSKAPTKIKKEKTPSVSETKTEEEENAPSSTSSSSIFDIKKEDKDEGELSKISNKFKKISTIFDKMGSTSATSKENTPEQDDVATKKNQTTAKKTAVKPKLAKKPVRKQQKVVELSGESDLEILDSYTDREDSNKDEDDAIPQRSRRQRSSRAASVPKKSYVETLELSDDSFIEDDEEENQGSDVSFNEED
Experimental: Due to the known activity of acridine and acridone derivatives as human topoisomerase inhibitors widely analysed for cancer chemotherapy, we decided to analyse the influence of Compound 1 as well as its R8 conjugate on the fungal equivalent of that enzyme. The relaxation of supercoiled plasmid DNA by yeast topoisomerase II (yTOPO II) was studied in the presence of different concentrations of both compounds.
The inhibition of yeast topoisomerase II was analysed according to the relaxation assay kit from Inspiralis (Inspiralis Limited, Norwich, UK). Briefly, 250 ng of supercoiled pBR322 DNA (Thermo Fisher Scientific, Waltham, MA, USA), 1 mM ATP (Inspiralis Limited, UK), and 1–200 μM of the analysed compound were mixed with reaction buffer (1 mM Tris-HCl (pH 7.9), 10 mM KCl, 0.5 mM MgCl2, 0.2 % (by volume) glycerol). The reaction was initiated by the addition of an enzyme, allowed to proceed at 30 °C for 30 min and terminated by addition of 40% (m/V) sucrose, 100 mM Tris-HCl pH 8, 10 mM EDTA, and 0.5 mg mL^−1 Bromophenol Blue. Two-step extraction with chloroform:isoamyl alcohol (24:1, by volume) and butanol water was performed and mixtures were analysed on 1% agarose gel in 1 × TAE buffer, 3h, 4.5 V cm^−1. Gel was stained in GelRed 3 × staining solution (Biotium, Fremont, CA, USA) for 30 min and photographed with Gel Doc XR+Gel Documentation System (Bio-Rad: Hercules, CA, USA).

yeast topoisomerase II [2] = target: T1, yeast topoisomerase II; assay: Formation of cleavable complexes in vitro; type: biochemical; conditions: 0.1-10 μM, pBR322 plasmid DNA
Experimental: Cleavage assay of yeast topoisomerase II was performed according to the formation of cleavable complexes kit from Inspiralis. The experimental conditions were the same as for the relaxation assay except for the amount of yeast topoisomerase II (16 times more enzyme was used). The reaction was initiated by the addition of the enzyme and allowed to proceed for 10 min at 30 °C. Then, 0.35% SDS and 0.3 mg mL^−1 proteinase K (A&A Biotechnology, Gdynia, Poland) was added, and the probes were incubated in 56 °C for 1 h. The reaction was terminated by the addition of 100 mM Tris-HCl pH 8, 10 mM EDTA, 0.5 mg mL^−1 Bromophenol Blue. Extraction with chloroform:isoamyl alcohol (24:1, by volume) was performed, and mixtures were analysed on the 1.2% agarose gel with 0.5 µg mL^−1 ethidium bromide in 1x TAE buffer, 18 h, 1.1 V cm^−1. Gel was photographed with the Gel Doc XR+Gel Documentation System.

HEK-293 = assay: cells; type: cell-based, human; conditions: Homo sapiens; HEK293, 72 h treatment, MTT, ± SD; read-out: IC50 (antiproliferative activity)
Experimental: (§1) The investigated compounds were screened for their in vitro antiproliferative activity towards a human embryonic kidney cell line (HEK-293) and human liver cancer cell line (HEPG2) using colorimetric MTT.
(§2) The human embryonic kidney cell line (HEK-293) and human liver cancer cell line (HEPG2) were purchased from ATCC (Manassas, Virginia, USA). HEK-293 was cultured in Dulbecco’s Modified Eagle Medium (Corning, NY, USA) and HEPG2 in Minimum Essential Medium Eagle (Corning, NY, USA). For each cell line, the culture medium was supplemented with 10% fetal bovine serum, 2 mM L-glutamine, and antibiotics: penicillin 62.6 µg mL^−1 and streptomycin 40 µg mL^−1. The cells were cultured at the humidified atmosphere of 5% CO2/95% air and routinely tested for Mycoplasma contamination.
(§3) Antiproliferative activity of the compounds was determined by (3-(4,5-dimethylthiazol-2-yl)-2,5-diphenyltetrazolium bromide (MTT, Sigma-Aldrich, St. Louis, MO, USA) assay, which involves the assessment of cell viability by the measurement of the cellular oxidoreductase activity. Briefly, cells were seeded into 96-well culture plates and were allowed to adhere overnight. The investigated compounds were dissolved in DMSO and added to wells (1% final concentration of DMSO) in various concentrations. After 72 h incubation, 20 µL of MTT solution in PBS (4 mg mL^−1) was added to each well, and plates were incubated for an additional 3h in standard culture conditions. After that, the medium was aspirated, and formazan crystals were dissolved in DMSO. The absorbance was determined at 570 nm with a microplate reader (Asys UVM 340 Microplate Reader, Biochrom, Cambridge, UK). All experiments were performed three times independently in triplicate.

HEPG2 = assay: cells; type: cell-based, human; conditions: Homo sapiens; HEPG2, 72 h treatment, MTT, ± SD; read-out: IC50 (antiproliferative activity)
Experimental: as §1, §2, §3

HEK-293 and HEPG2 = assay: Antiproliferative activity, MTT, both tested cell lines; type: cell-based; conditions: Homo sapiens; Table 5
Experimental: as §1
as §2, with “The cells were cultured at the humidified atmosphere of 5% CO2/95% air and routinely tested for Mycoplasma contamination.” left out
as §3, with “After that, the medium was aspirated, and formazan crystals were dissolved in DMSO. The absorbance was determined at 570 nm with a microplate reader (Asys UVM 340 Microplate Reader, Biochrom, Cambridge, UK). All experiments were performed three times independently in triplicate.” left out

[3] = test system: Candida albicans ATCC 10231; conditions: for IC50 HEK293/MIC90 (mycostatic selectivity index): HEK293 vs Candida albicans ATCC 10231, MIC converted to micromolar; for IC50 HEPG2/MIC90 (mycostatic selectivity index): HEPG2 vs Candida albicans ATCC 10231
[4] = test system: Candida glabrata ATCC 90030; conditions: for IC50 HEK293/MIC90 (mycostatic selectivity index): HEK293 vs Candida glabrata ATCC 90030; for IC50 HEPG2/MIC90 (mycostatic selectivity index): HEPG2 vs Candida glabrata ATCC 90030
Candida krusei ATCC 6258 [5] = conditions: for IC50 HEK293/MIC90 (mycostatic selectivity index): HEK293 vs Candida krusei ATCC 6258; for IC50 HEPG2/MIC90 (mycostatic selectivity index): HEPG2 vs Candida krusei ATCC 6258
[6] = test system: Candida parapsilosis ATCC 22019; conditions: for IC50 HEK293/MIC90 (mycostatic selectivity index): HEK293 vs Candida parapsilosis ATCC 22019; for IC50 HEPG2/MIC90 (mycostatic selectivity index): HEPG2 vs Candida parapsilosis ATCC 22019
[7] = test system: Saccharomyces cerevisiae ATCC 9763; conditions: for IC50 HEK293/MIC90 (mycostatic selectivity index): HEK293 vs Saccharomyces cerevisiae ATCC 9763; for IC50 HEPG2/MIC90 (mycostatic selectivity index): HEPG2 vs Saccharomyces cerevisiae ATCC 9763
Candida albicans = test system: Candida albicans; set-up: method as in PMID 23563951; conditions: cited from earlier work
human topoisomerase II = conditions: cited from earlier work
Candida albicans cells = test system: Candida albicans cells; set-up: method as in PMID 23563951; conditions: cited from earlier work
[8] = test system: Candida albicans ATCC 10231; assay: microbe, parasite or virus in culture
[9] = test system: Candida glabrata ATCC 90030; assay: microbe, parasite or virus in culture; conditions: Nakaseomyces glabratus, ATCC90030, 24 h, pH 7
Candida krusei ATCC 6258 [10] = assay: microbe, parasite or virus in culture; conditions: Pichia kudriavzevii, ATCC6258, 24 h, pH 7
[11] = test system: Candida parapsilosis ATCC 22019; assay: microbe, parasite or virus in culture; conditions: Lodderomyces parapsilosis, ATCC22019, 24 h, pH 7
[12] = test system: Saccharomyces cerevisiae ATCC 9763; assay: microbe, parasite or virus in culture; conditions: ATCC9763, 24 h, pH 7
yeast topoisomerase II [13] = target: T1, yeast topoisomerase II; set-up: method as in PMID 33572407; conditions: read-out: IC50 (yeast topoisomerase II relaxation); cited from earlier work
Candida albicans B3 = assay: microbe, parasite or virus in culture
Candida albicans B4 = assay: microbe, parasite or virus in culture
Candida albicans Gu4 = assay: microbe, parasite or virus in culture
Candida albicans Gu5 = assay: microbe, parasite or virus in culture
Candida albicans F2 = assay: microbe, parasite or virus in culture
Candida albicans F5 = assay: microbe, parasite or virus in culture
[14] = test system: C. albicans ATCC 10231 cells; assay: Fluorescence microscopy of uptake and accumulation; conditions: 256 μg mL^−1 (8 × MFC of Compound 1-R8)
Experimental: Candida albicans ATCC 10231 strain were grown in the YPG medium overnight (16–18 h) at 30 °C, washed twice with sterile phosphate-buffered saline (PBS) and resuspended in RPMI 1640 at a cell density of 2 × 10^7 cells mL^−1. The inoculum (5 mL) was added to 5 mL RPMI 1640 with 256 μg mL^−1 of tested compounds. After appropriate period of time, 2 mL of cell suspension was washed three times with sterile phosphate-buffered saline (PBS). If appropriate, cells where resuspended in 1 mL of PBS and 5 μL of 2 mg mL^−1 propidium iodide (PI, Sigma-Aldrich, St. Louis, MO, USA) were added and incubated for 30 min and then rinsed three times with PBS buffer. After that, cells were resuspended in 5 μL 90% (by volume) glycerol/10% (by volume) 1 × PBS and transferred to a microscopic slide. The cells were examined with the Olympus BX-60 fluorescence microscope (λex = 330–385 nm, λem ≥ 420 nm, lens × 40) equipped with the Olympus XC50 digital camera (Olympus Corporation, Tokyo, Japan) or LSM800 T-PMT confocal microscope with a CCD camera (ZEISS, Göttingen, Germany). Images were analysed and processed with cellSens Dimension and ZEN Blue software [47].

Row | Structure (SMILES) | Antifungal Activity (level) (reference strains) | antifungal activity (reference strains) | concentration that totally inhibited yeast topoisomerase II-mediated relaxation (yeast topoisomerase II [1]) [µM] | formation of DNA–yeast topoisomerase II cleavable complexes (yeast topoisomerase II [2]) | IC50 (HEK-293) [µM] | IC50 (HEPG2) [µM] | IC50 HEK293/MIC90 (mycostatic selectivity index) [3] | IC50 HEPG2/MIC90 (mycostatic selectivity index) [3] | IC50 HEK293/MIC90 (mycostatic selectivity index) [4] | IC50 HEPG2/MIC90 (mycostatic selectivity index) [4] | IC50 HEK293/MIC90 (mycostatic selectivity index) (Candida krusei ATCC 6258 [5]) | IC50 HEPG2/MIC90 (mycostatic selectivity index) (Candida krusei ATCC 6258 [5]) | IC50 HEK293/MIC90 (mycostatic selectivity index) [6] | IC50 HEPG2/MIC90 (mycostatic selectivity index) [6] | IC50 HEK293/MIC90 (mycostatic selectivity index) [7] | IC50 HEPG2/MIC90 (mycostatic selectivity index) [7] | MIC90 ([8]; ATCC10231, 24 h, pH 7) [µg/mL] | MIC90 [9] [µg/mL] | MIC90 (Candida krusei ATCC 6258 [10]) [µg/mL] | MIC90 [11] [µg/mL] | other results
1 | CCN(CC)CCNc1ccc2ncn3c4ccc(O)cc4c(=O)c1c23 [Compound C-1311, 5-((2-(Diethylamino)ethyl)amino)-8-hydroxy-6H-imidazo[4,5,1-de]acridin-6-one] | − | no antifungal activity was observed | 50 | stimulated the formation of DNA–yeast topoisomerase II cleavable complexes | 0.008 ± 0.007 | 0.129 ± 0.037 | <0.00005 | <0.00078 | <0.00005 | <0.00078 | <0.00005 | <0.00078 | <0.00005 | <0.00078 | <0.00005 | <0.00078 | > 64 | > 64 | > 64 | > 64 | IC50 (HEK-293 and HEPG2): ≤ 1 µM; antifungal activity (Candida albicans): no antifungal activity was observed; IC50 (hTOPO II inhibition) (human topoisomerase II): 2.5 µg/mL (≈ 7.13 µM); IC50 (human topoisomerase II; read-out: IC50 (hTOPO II inhibition)): 6.5 µM; accumulation in Candida albicans cells (Candida albicans cells): unable to accumulate in Candida albicans cells; MIC90 [12]: > 64 µg/mL
2 | COc1cc(NS(C)(=O)=O)ccc1Nc1c2ccccc2nc2ccccc12 [m-AMSA] |  |  |  |  |  |  |  |  |  |  |  |  |  |  |  |  |  |  |  |  | IC50 (yeast topoisomerase II [13]): > 200 µM
3 | NCCNc1ccc2ncn3c4ccc(O)cc4c(=O)c1c23 [Compound 1, 5-((2-Aminoethyl)amino)-8-hydroxy-6H-imidazo[4,5,1-de]acridin-6-one] | − | no antifungal activity was observed | 50 | stimulated the formation of DNA–yeast topoisomerase II cleavable complexes | 0.55 ± 0.125 | 0.364 ± 0.013 | <0.0058 | <0.0038 | <0.0058 | <0.0038 | <0.0058 | <0.0038 | <0.0058 | <0.0038 | <0.0058 | <0.0038 | > 64 | > 64 | > 64 | > 64 | MIC90 ([8]; ATCC10231): > 64 µg/mL; MIC90 [12]: > 64 µg/mL; MIC90 (Candida albicans B3): > 64 µg/mL; MIC90 (Candida albicans B4): > 64 µg/mL; MIC90 (Candida albicans Gu4): > 64 µg/mL; MIC90 (Candida albicans Gu5): > 64 µg/mL; MIC90 (Candida albicans F2): > 64 µg/mL; MIC90 (Candida albicans F5): > 64 µg/mL; uptake and accumulation in fungal cells [14]: no significant accumulation
